According to patent publication US7605168B2 (Plexxikon, Inc., priority 2004, dated 2009):

Columns and labels:
[1] = biological target: T1, PDE4B2: full-length human PDE4B2 isozyme (Homo sapiens, UniProt Q07343); assay: PDE4 IC50 determination by Scintillation Proximity Assay (SPA), full-length PDE4B2; format: biochemical; settings: cell lysate, [3H]cAMP SPA
T1 construct: made in house; host or cells: baculovirus infected insect cells (pFastBacHT)
Summary of the method: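 Unpurified enzyme from cell lysates (PDE4B2 2.5 μl, PDE4D5 0.083 μl of 50% glycerol stock/ml) hydrolysing [3H]cAMP in 50 mM Tris pH 7.5, 8.3 mM MgCl, 1.7 mM EGTA, 0.01% BSA, 30 min at 30 °C. Stopped with yttrium silicate SPA beads in 18 mM ZnSO4; bead-bound [3H]AMP counted. IC50 by non-linear regression.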

[2] = test system: TNF-α release from whole blood cultures stimulated with LPS; assay: IC50 by TNF alpha production upon stimulation of whole blood cultures with LPS; format: cell-based; settings: human whole blood (buffy coat) culture, 100 ng/ml LPS, 4 hours; read-out: h TNFα IC50
Summary of the method: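 Human buffy coat, diluted with 7 volumes of RPMI/2.5% heat-inactivated FBS, was preincubated with compound (8-point 1:3 series) for 1 h at 37 °C. It was then stimulated with 100 ng/ml LPS (final) for 4 h. Supernatant TNF-α was measured by sandwich ELISA at 450 nm, and IC50 was set between DMSO (0%) and PDE4-inhibitor (100%) controls.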

T1 sequence (Q07343 with tags, fused parts or gaps isoform Q07343-2): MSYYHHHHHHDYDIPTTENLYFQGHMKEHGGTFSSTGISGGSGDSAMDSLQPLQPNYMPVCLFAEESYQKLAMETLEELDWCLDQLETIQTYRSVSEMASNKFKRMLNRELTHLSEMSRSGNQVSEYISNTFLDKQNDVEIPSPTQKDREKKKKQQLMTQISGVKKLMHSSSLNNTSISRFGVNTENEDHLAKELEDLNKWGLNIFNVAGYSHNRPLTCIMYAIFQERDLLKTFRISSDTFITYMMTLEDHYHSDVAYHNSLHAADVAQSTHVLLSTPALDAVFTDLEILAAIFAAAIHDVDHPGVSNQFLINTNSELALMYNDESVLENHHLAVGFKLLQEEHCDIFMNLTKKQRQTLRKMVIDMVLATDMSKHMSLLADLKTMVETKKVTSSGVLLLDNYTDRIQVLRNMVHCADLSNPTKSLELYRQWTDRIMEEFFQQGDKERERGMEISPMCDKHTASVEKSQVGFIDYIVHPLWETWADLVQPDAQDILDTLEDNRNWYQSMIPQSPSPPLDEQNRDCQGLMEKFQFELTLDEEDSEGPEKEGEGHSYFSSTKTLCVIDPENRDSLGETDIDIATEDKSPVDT

Structure (SMILES)	IC50 [1] [µM]	IC50 [2] [µM]
CCOc1ccc2ccccc2c1C(=O)n1cc(-c2ccc(OC)c(OC)c2)c2cccnc21 [Compound 52, [3-(3,4-Dimethoxy-phenyl)-pyrrolo[2,3-b]pyridin-1-yl]-(2-ethoxy-naphthalen-1-yl)-methanone]	< 10	≤ 10
CCOc1ccccc1C(=O)n1cc(-c2ccc(OC)c(OC)c2)c2cccnc21 [Compound 61, [3-(3,4-Dimethoxy-phenyl)-pyrrolo[2,3-b]pyridin-1-yl]-(2-ethoxy-phenyl)-methanone-amide]	< 10	≤ 10
